{"source": "patent US10286000B2", "about": "“Retinoid X receptor-gamma agonists and retinoid X receptor-alpha antagonists for treatment of cancer” (St. Jude Children's Research Hospital, Inc., priority 2013, dated 2019)", "key": {"RXR-gamma": {"system": "RXR-gamma", "experiment": "RXR-gamma reporter assay", "type": "cell-based, human", "conditions": "HCT116 cells", "protocol": "The Cignal RXR reporter assay system containing an RXR-gamma-responsive luciferase construct, which encodes the firefly luciferase reporter gene under the control of a minimal CMV promoter and tandem repeats of the RXR-gamma transcriptional response element, was purchased from Qiagen. The experiment was performed in HCT116 cells according to the manufacturer's instructions."}, "TIMP2 and TIMP3": {"system": "TIMP2 and TIMP3", "experiment": "TIMP2 and TIMP3 ELISA", "type": "cell-based, human", "conditions": "HCT116, 56 μM 3 days"}, "normal human lymphocytes": {"system": "normal human lymphocytes", "experiment": "normal human lymphocytes: viability and NKG2DL expression", "type": "cell-based"}, "[1]": {"system": "ULBP2 surface expression in 293T cells", "experiment": "high-throughput screening of 5600 bioactive compounds, ULBP2 surface expression", "type": "cell-based, human"}, "[2]": {"system": "spontaneous intestinal polyps", "experiment": "C57BL/6J-ApcMin/J mouse model", "type": "in vivo, C57BL/6J-Apc^Min/J mice", "protocol": "The number of spontaneous intestinal polyps (arrows) was counted and compared between the two groups of mice at the end of the 3 month period. (B) The difference in adenoma growth (arrows) between the PBS- and SPIR-treated mouse groups was confirmed in intestine tissue sections. […] Total RNA were collected for cDNA preparation and the expressions of the mouse NKG2D ligands Raet1 family were analyzed by qRT-PCR. […] The number of spontaneous intestinal polyps (arrows) was counted and compared between the two groups of mice. * P≤0.05, ** P≤0.01, *** P<0.005.\nBy examining the intestines collected from different age groups of C57BL/6J-APC^Min/J mice (n=2-3 per group), it was discovered that none of the 8-week-old mice developed intestinal polyps. The mice started to develop polyps when they were 10 to 12-week-old and there were 15-25 intestinal adenomas established in the intestinal tracts of all the 4-month-old mice. Most of the mice died at 5 to 6 months with 25-30 adenomas in their intestines. […] The number of intestinal polyps was counted, and the intestine was fixed in 10% neutral buffered formalin, paraffin embedded, sectioned, and stained with hematoxylin and eosin. Intestine sections at 100-μm intervals were collected for the observation of neoplasia without knowledge of treatment assignment."}, "[3]": {"system": "NKG2DL mRNA in colon cancer cell lines", "experiment": "qRT-PCR of NKG2DL mRNA", "type": "cell-based, human", "conditions": "relative to DMSO", "protocol": "For qRT-PCR, total RNA was extracted from untreated or drug-treated tumor cells by using the RNA Clean & Concentrator (Zymo Research). All cDNA was generated by using the SuperScript VILO cDNA Synthesis kit (Life Technologies) and diluted 10-fold for analysis using the 7900HT Fast Real-time PCR System (Applied Biosystems). The data were calculated as the CT of target genes normalized to the CT of GAPDH of each sample. […] Differentially expressed transcripts were analyzed by ANOVA on Spotfire program."}, "[4]": {"system": "ULBP2 in MR-knockdown 293T cells", "experiment": "ULBP2 surface expression in MR-knockdown 293T cells", "type": "cell-based, human", "protocol": "(A) MR mRNA expression was determined by qRT-PCR in various cell lines (n=3). (B) MR protein expression was determined by Western blot analysis. Data shown are representative of two independent experiments. (C) MR-knockdown 293T cells were generated by lentiviral transduction with an shRNA vector (pLKO.1) targeting MR. The relative mRNA expression of MR was analyzed by qRT-PCR (n=3). […] Data shown are representative of two independent experiments. * P<0.0001."}, "[5]": {"system": "HCT116 cells, hepatic metastasis", "experiment": "hepatic metastasis model (intrasplenic HCT116)", "type": "in vivo, NSG mice", "conditions": "i.p. every other day", "protocol": "(B) HCT116 cells were transfected with control KD or RXR-gamma-KD1 siRNA on day 0. […] The mRNA expression of TIMP2 and TIMP3 was analyzed by qRT-PCR on day 5. Data are shown as relative mRNA fold change of SPIR-treated RXR-gamma-KD1 cells to control KD cells (n=3). (C) HCT116 cells were transfected with control KD or RXR-gamma-KD1 siRNA on day 0. […] Data are calculated as the percentage change in distance of migration relative to that of DMSO-treated cells (n=3). (D) HCT116 cells were transfected with control KD, RXR-gamma-KD1, TIMP2-KD or TIMP3-KD siRNA on day 0. […] The number of cells that invaded the ECM was determined after 36 h. Data are expressed as percentage change in tumor invasion relative to that of DMSO-treated cells (n=3). (E) HCT116 cells were transfected with control-KD, TIMP2-KD or TIMP3-KD siRNA on day 0. […] Hepatic metastasis was analyzed by performing bioluminescence imaging on day 10.* P<0.05, ** P<0.005, *** P<0.0001.\nLuciferase-expressing HCT116 and HT29 cells were generated by lentiviral transduction of the cells with a CMV promoter-driven luciferase expression construct engineered from the pLL3.7 vector. […] Bioluminescence imaging was performed in a Xenogen imaging system to monitor tumor growth and the data were analyzed using Living Image software (Caliper LifeSciences). […]"}}, "data": [{"smiles": "CC(=O)S[C@@H]1CC2=CC(=O)CC[C@]2(C)[C@H]2CC[C@@]3(C)[C@@H](CC[C@@]34CCC(=O)O4)[C@H]12", "note": "[SPIR, spironolactone]", "values": [{"measurement": "RXR-gamma-responsive luciferase activity", "setting": "RXR-gamma; 24 h", "result": "significantly increased"}, {"measurement": "RXR-gamma protein level", "setting": "RXR-gamma; Western blot", "result": "did not change"}, {"measurement": "TIMP2 and TIMP3 in culture supernatant", "setting": "TIMP2 and TIMP3", "result": "corresponding increases"}, {"measurement": "viability or NKG2DL expression of normal human lymphocytes", "setting": "normal human lymphocytes", "result": "no detrimental effect"}, {"measurement": "surface expression of ULBP2", "setting": "[1]", "result": "significantly increased"}, {"measurement": "number of polyps (therapy)", "setting": "[2]; 4-month-old mice, twice a week for 3 weeks, vs untreated", "result": "significant reduction of the number of polyps"}, {"measurement": "number of polyps formed (prevention)", "setting": "[2]; 8-week-old mice, twice a week for 3 months, vs untreated", "result": "significantly less"}, {"measurement": "expression of Raet1 ligand in the polyps", "setting": "[2]; qRT-PCR", "result": "significantly increased the expression of the Raet1 ligand"}, {"measurement": "NKG2DL mRNA levels", "setting": "[3]", "result": "increase in mRNA levels"}, {"measurement": "upregulation of ULBP2 upon SPIR treatment with shRNA knockdown of MR", "setting": "[4]", "result": "did not affect the upregulation of ULBP2"}, {"measurement": "hepatic tumor metastasis", "setting": "[5]", "result": "significantly suppresses tumor metastasis"}]}]}
